{
  "source": "patent US20130310387A1",
  "about": "“Monocyclic Heteroaryl Cycloalkyldiamine Derivatives” (NOVARTIS AG, priority 2012, published 2013)",
  "key": {"TMD-8 cells": {"test_system": "TMD-8 cells", "assay": "cells", "conditions": "Homo sapiens, TMD8, 96 h"}, "[1]": {"test_system": "phosphorylation of BLNK in Ramos B cells", "assay": "Anti IgM-induced phosphorylation of BLNK in Ramos B cells", "assay_type": "cell-based", "conditions": "Homo sapiens, 0.25 h, anti IgM 15 min, flow cytometry anti-BLNK (pY84)", "experimental": "Anti IgM-induced phosphorylation of BLNK (BLNK=B cell linker (SLP65=SH2 domain containing leukocyte protein of 65 kDa)) in Ramos B cells: Ramos B cells in a volume of 25 μl were incubated with 25 μl of the compound solution at 2-fold the desired final concentration for 30 min. at 37° C. Then 50 μL anti IgM was added, mixed and incubated for 15 min. at 37° C. In each experiment 8-fold serial dilutions of compounds were tested. The stimulation was stopped by addition of 100 μL/well of PFA (para formaldehyde) I PBS (phosphate buffered saline) (final conc. 2% PFA) for fixation and incubated for 15 min. at 37° C., then centrifuged at 1300 rpm for 3 min and permeabilized by resuspending the cell pellet in 100 μL methanol 90% and further incubated for 30 min at 4° C. The cells were then washed and phosphoproteins were detected by flow cytometry using fluorescently labeled anti-BLNK ([…]) (BD Biosciences)."}, "OCI-Ly3 cells": {"test_system": "OCI-Ly3 cells", "assay": "B-cell lymphoma cell proliferation (WST-1 assay), OCI-Ly3", "assay_type": "cell-based", "conditions": "OCI-Ly3, 3 days of incubation", "experimental": "Cell proliferation was determined using the WST-1 assay (Roche, Mannheim, Germany), which measures the metabolic activity of the cells. […] The cell proliferation reagent WST-1 (10 μl/well) was added to the cells for 1-2 hours depending on the cell type which were cultured in 200 μl of medium. The absorbance was then measured with an enzyme-linked immunosorbent assay plate reader at a wavelength of 450 nm."}, "HBL-1 cells": {"test_system": "HBL-1 cells", "assay": "cells", "conditions": "HBL1, 96 h"}, "[2]": {"test_system": "SLP-76 phosphorylation in human whole blood monocytes", "assay": "FcR stimulation-induced SLP-76 phosphorylation in human whole blood monocytes", "assay_type": "cell-based", "conditions": "Monocyte, 5 min, anti CD32 stimulation 5 min, flow cytometry, read-out: Fc Recepor stimulation induced SLP-76 phosphorylation in human whole blood monocytes, IC50", "source_text": "After lysis of erythrocytes and washings, the cell pellet was permeabilized with ice-cold methanol 90%. The permeabilized cells were washed and stained with anti CD14 (eBioscience) to detect monocytes and anti P-SLP76 ([…]) (BD Biosciences) and quantified by flow cytometry."}},
  "data": [
    {"smiles": "NC(=O)c1nnc(N[C@@H]2CCCC[C@@H]2N)nc1Nc1cccc2cc[nH]c12", "note": "[Example 1.1, 3-((1R,2S)-2-Amino-cyclohexylamino)-5-(1H-indol-7-ylamino)-[1,2,4]triazine-6-carboxylic acid amide]", "values": [
      {"measurement": "GI50", "setting": "TMD-8 cells", "value": 0.281, "unit": "µM"},
      {"measurement": "IC50", "setting": "[1]", "value": 0.106, "unit": "µM"},
      {"measurement": "GI50", "setting": "OCI-Ly3 cells", "value": "No inhibition"},
      {"measurement": "GI50", "setting": "HBL-1 cells", "value": 0.105, "unit": "µM"},
      {"measurement": "IC50", "setting": "[2]", "value": 0.378, "unit": "µM"}
    ]}
  ]
}
